System: melanoma cells (D10)
Experiment: Membrane turnover assay (FM1-43 uptake by FACS in CTL/target cell conjugates)
Format: cell-based, human
Details: D10 cells loaded with antigenic peptide, pretreated 2 h with 50 μM BAPTA-AM, alone or after 5 min conjugation with CTL; compared with untreated cells
Description: Loading of target cells: Target cells were left unpulsed or pulsed with 10 μM antigenic peptide during 2 h at 37° C./5% CO2. Cells were washed three times, re-suspended at 15×10^3 to 30×10^3 cells in 25 μl RPMI/5% FCS/HEPES and transferred to a 96-well U-bottom plate.
In some experiments, D10 cells were pretreated (2 h) or not with 50 μM BAPTA-AM (ThermoFisher Scientific).
CTL staining: CTL were stained with 10 μM CellTrace Violet (CTV, ThermoFisher Scientific) for 30 min at 37° C./5% CO2, washed three times and re-suspended at 30×10^3 to 60×10^3 cells per 25 μl RPMI/5% FCS/HEPES.
Conjugation of CTL and target cells: 25 μl of CTL (previously stained with CTV) were added in wells containing pulsed or unpulsed target cells at 2:1 CTL/target cell ratio. Target cells were previously added to three 96-U-bottom plates (one plate per time point: 2, 5 or 15 minutes). A pre-diluted solution of FM1-43 (ThermoFisher Scientific) was prepared at 20 μg/ml. 50 μl of this solution were added to wells containing in 50 μl the cells of interest to have a final concentration of 10 μg/ml. The FM1-43 solution was added to wells at the same time of CTL. Cells were pelleted during 1 minute at 455 g and incubated at 37° C./5% CO2 for 2, 5 or 15 minutes.
At the end of the incubation time, 100 μl cold FACS buffer (PBS 1% FBS 1% HS 0.1% azide) supplemented with 0.5 mM EDTA were added to each well on ice. […]

Structure (SMILES): CC(=O)OCOC(=O)CN(CC(=O)OCOC(C)=O)c1ccccc1OCCOc1ccccc1N(CC(=O)OCOC(C)=O)CC(=O)OCOC(C)=O [BAPTA-AM]
- FM1-43 uptake (fluorescence intensity) in melanoma cells: decrease of FM1-43 uptake

Reference: patent US20220018828A1, “METHODS AND KIT FOR ASSAYING LYTIC POTENTIAL OF IMMUNE EFFECTOR CELLS” (INSERM (INSTITUT NATIONAL DE LA SANTÉ ET LA RECHERCHE …, priority 2018, published 2022)
